We go through 11 compounds from patent US20250149635A1, “SILICATE PLATFORM AS WEAKLY-COORDINATING ANIONS FOR DIVERSE ORGANOMETALLIC TRANSFORMATIONS AND ELECTROCHEMICAL APPLICATIONS” (California Institute of Technology, priority 2023, published 2025).

The conditions of data set [1]: calculated, literature ref. 47; cited from earlier work.
Data set [2] in a line: C2H4/CO copolymerization trials with cationic Pd catalyst. How it is done: In a N2 glovebox, Pd catalyst (10 μmol) was dissolved in toluene (10 mL) was transferred to a Fisher-Porter vessel. The reactor was removed from the glovebox and connected to a C2H4/CO gas feed. The N2 atmosphere was replaced with a 1:1 mixture of C2H4/CO (flow rate 300 sccm for each gas) by pressurizing the vessel to 100 psi and venting 3×. After pressurizing to 100 psi, polymerization was run for 3 hr at RT. The reaction was quenched upon exposure to air, and the polymer was precipitated by stirring with acidic methanol (0.6 mL HCl/10 mL MeOH). The polymer was collected and dried under vacuum overnight.
NMRs were recorded in a mixture of 1, 1, 1, 3, 3, 3-hexafluoro-2-propanol and C6D6 (4:1) at RT.

Data set [3] can be described thus: Solubility determination by 19F NMR with fluorobenzene internal standard.
Procedure: Each sample was filtered, and 600 μL was transferred to a new vial. Fluorobenzene (5 μL) was added as an internal standard to the filtered solution and mixed thoroughly via pipette.
Data set [4] in a line: Cyclic and linear sweep voltammetry of 0.1 M tetra-n-butylammonium salts in MeCN (electrochemical stability window). Format: physicochemical. From the text: FIG. 12: Cyclic voltammetry and linear sweep voltammetry experiments of 0.1 M 1-[Bu4N] and [Bu4N][PF6] in MeCN; Current shown were normalized to the highest current in each experiment; FIG. 12A: Cyclic voltammogram of 1-[Bu4N] in MeCN; WE: Glassy carbon; CE: Pt wire; RE: Ag wire; scan rate=100 mVs^−1; FIGS. 12B and 12C: Linear sweep voltammograms of 0.1 M 1-[Bu4N] and [Bu4N][PF6] in MeCN; WE: Glassy carbon; CE: Pt wire; RE: Ag wire; scan rate=50 mVs^−1.
Linear sweep voltammetry experiments of 1-[Bu4N] and [Bu4N][PF6] were performed under an N2 atmosphere using a Pine Instrument Company AFCBP1 bipotentiostat using the AfterMath software package. Linear sweep voltammograms were recorded in the glovebox at 25° C. with an auxiliary Pt-coil counter electrode, Ag-wire reference electrode, and 3.0 mm glassy carbon working electrode (BASI). The electrolyte solution was 0.1 M of the corresponding tetra-n-butylammonium salt in MeCN. All reported values are referenced to an internal ferrocene/ferrocenium couple.

The nature of data set [5]: Cyclic voltammetry of Mg deposition/stripping in DME. Format: physicochemical. The conditions noted are these: for deposition overpotential: 0.25-0.26 M in DME with 10 mM Me2Mg, Pt wire WE, 25 mVs^−1; for oxidative stability: in DME, with 10 mM Me2Mg, sweep to 4.75 V. How it is done: FIG. 14A: Cyclic voltammetry experiments of 0.26 M 1-[Mg(DME)3] with 10 mM of Me2Mg. WE: Pt wire; CE: Mg strip; RE: Mg strip; Scan rate: 25 mVs^−1; Cycling protocol: −0.8 V to 4.0 V, 100 cycles. FIG. 14B: Cycles 1, 25, 50, 75, 100. FIG. 14C: Coulombic efficiency cycles 1-100; Cyclic voltammetry experiments of 0.26 M 1-[Mg(DME)3] with 10 mM of Me2Mg.
FIG. 15A: Cyclic voltammetry experiments of 0.25 M 2-[Mg(DME)3] with 10 mM of Me2Mg. WE: Pt wire; CE: Mg strip; RE: Mg strip; Scan rate: 25 mVs^−1; Cycling protocol: −0.8 V to 3.8 V, 100 cycles; FIG. 15B: Cycles 1, 25, 50, 75, 100. FIG. 15C: Coulombic efficiency cycles 1-100; Cyclic voltammetry experiments of 0.25 M 2-[Mg(DME)3] with 10 mM of Me2Mg.
FIG. 20: Cyclic voltammetry experiments of 0.26 M 1-[Mg(DME)3] in DME.WE: Pt wire; CE: Mg strip; RE: Mg strip; Scan rate: 25 mVs^−1; Cycling protocol: −0.8 V to 4.0 V, 200 cycles.
Cyclic voltammetry experiments of 1-[Mg(DME)3] were run in an empty N2-filled glovebox fitted with a purifier system that consists of a purifier cartridge (ca. 50% activated 4 Å molecular sieves and activated Cu catalyst) and a circulator fan, no solvent or chemicals were stored in the glovebox. Electrolyte solutions were prepared in a separate glovebox by dissolving 1-[Mg(DME)3] in 500 μL of DME and stirred with a new Teflon stir bar until complete dissolution. DME and 1-[Mg(DME)3] were only used with the glovebox circulation purifier turned off after extensive (minimum 20 minutes at […] above atmospheric pressure to ensure full atmosphere exchange) purging of the glovebox atmosphere to avoid cross-contamination with other atmospheric solvents. Upon complete dissolution of the electrolyte, the electrolyte solution was sealed and transported to the electrochemistry glovebox immediately before electrochemical experiments were performed.
Mg electrodes (99.9%, MTI) were polished with a razor blade immediately before use. Pt electrodes (wire, 0.5 mm diameter, 99.995%, Thermo Scientific) were soaked in concentrated HNO3 for at least 72 hours, rinsed with deionized water at least thrice, annealed with an H2 torch, and immediately brought into the glovebox in a flame-dried 20 mL scintillation vial while hot. Cyclic voltammetry experiments of 1-[Mg(DME)3] were performed in glass cells with 0.5 mL of electrolyte. A Pt wire served as the working electrode (WE), and Mg foils were the counter and reference electrodes (CE and RE). Experiments of 1-[Mg(DME)3] were conducted on either a Biologic SP150 potentiostat or a Biologic VSP-300 potentiostat.

The mark [6] stands for this setting: 10 μmol Pd catalyst in toluene, 100 psi 1:1 C2H4/CO, 3 hr at RT.
The mark [7] stands for this setting: 0.1 M Bu4N salt in MeCN, glassy carbon WE.

Turning to (MeCN)Si(O2C6F12)2, in data set [1], the fluoride affinity is 113 kcal/mol.

With “[Pd(dppe)(NCMe)Me][^tBu2ArSi^F24] [3-[Pd(dppe)(NCMe)Me]]”, the Activity in data set [2] (setting [6]) amounted to 1.67 g/mmol/h; in data set [2] (100 psi of C2H4/CO), 1.7 g/mmol/h. Besides, the “Polymer Yield” value in data set [2] (setting [6]) is 50.2.

For [K][^tBu2ArSi^F24] [3-[K]], the “solubility in CH2Cl2 (in words)” value in data set [3] (CH2Cl2) is on record as “high solubility”. Also, the solubility in benzene in data set [3] (in benzene, stirred 16 hr, filtered, 19F NMR) was 100 µM. In data set [3] (in dichloromethane, 19F NMR), this compound registered a solubility in dichloromethane of 400 µM.

In the case of [Bu4N][^MeSi^F24] [1-[Bu4N]], in data set [4] (in MeCN), the electrochemical stability window entry is given as “ca. 7.5 V”.

For the compound `COCCOC.COCCOC.COCCOC.C[Si-]12(OC(C(F)(F)F)(C(F)(F)F)C(C(F)(F)F)(C(F)(F)F)O1)OC(C(F)(F)F)(C(F)(F)F)C(C(F)(F)F)(C(F)(F)F)O2.C[Si-]12(OC(C(F)(F)F)(C(F)(F)F)C(C(F)(F)F)(C(F)(F)F)O1)OC(C(F)(F)F)(C(F)(F)F)C(C(F)(F)F)(C(F)(F)F)O2.[Mg+2]` [1-[Mg(DME)3], [Mg(DME)3][^MeSi^F24]2], the deposition overpotential entry in data set [5] is given as “ca. −420 mV vs. Mg/Mg^2+”. In addition, the “reductive overpotential, stabilized over continuous cycling” value in data set [5] (0.26 M in DME, absence of Me2Mg) was “ca. 400 mV”. In data set [5] (0.26 M in DME, absence of Me2Mg, −0.8 to 2.0 V vs. Mg/Mg^2+), the “coulombic efficiency, stabilized with cycling” value is “ca. 96%”.

Consider `C[Si-]12(OC(C(F)(F)F)(C(F)(F)F)C(C(F)(F)F)(C(F)(F)F)O1)OC(C(F)(F)F)(C(F)(F)F)C(C(F)(F)F)(C(F)(F)F)O2` [[^MeSi^F24]], for which the oxidative stability entry in data set [5] is on record as “ca. 4.2 V vs. Mg/Mg^2+”. In data set [4] (setting [7]), the “oxidative stability (stable up to)” value is given as “up to 4.5 V vs. Fc/Fc^+” and the reductive stability result is “ca. −3.1 V vs. Fc/Fc^+”. In addition, the electrochemical stability window in data set [4] (in MeCN) was 7.5 V. Besides, the “oxidative stability surpassing that of PF6^−” value in data set [4] (in MeCN, versus [Bu4N][PF6]) is recorded as “ca. 1 V”.

In the case of `F[P-](F)(F)(F)(F)F` [PF6^−, reference compound], in data set [4] (setting [7]), the reductive stability entry is recorded as “ca. −3.1 V vs. Fc/Fc^+”.

Turning to [Mg(DME)3][^PhSi^F24]2 [2-[Mg(DME)3]], in data set [5], the deposition overpotential entry is on record as “ca. −350 mV vs. Mg/Mg^2+” and the oxidative stability entry is “ca. 4.05 V vs. Mg/Mg^2+”.

In the case of `CC#N.FC(F)(F)c1cc([B-](c2cc(C(F)(F)F)cc(C(F)(F)F)c2)(c2cc(C(F)(F)F)cc(C(F)(F)F)c2)c2cc(C(F)(F)F)cc(C(F)(F)F)c2)cc(C(F)(F)F)c1.[CH3][Pd+]1[PH](c2ccccc2)(c2ccccc2)CC[PH]1(c1ccccc1)c1ccccc1` [[Pd(dppe)(NCMe)Me]^+[BAr^F24]^−, [Pd(dppe)(NCMe)Me][BAr^F24], reference compound], the Activity in data set [2] (setting [6]) came out at 2.28 g/mmol/h; in data set [2] (100 psi of C2H4/CO), 2.3 g/mmol/h. The “Polymer Yield” value in data set [2] (setting [6]) is listed as 68.6.

Regarding `[F][Sb]([F])([F])([F])[F]` [SbF5], the fluoride affinity in data set [1] was 120 kcal/mol.

Regarding [Pd(dppe)(NCMe)Me]^+[^MeSi^F24], in data set [2] (setting [6]), the Activity came to 1.06 g/mmol/h and the “Polymer Yield” value came to 31.9.
